Where two headings read alike, the source gives them in different places.

From patent US20250082633A1, “COMPOUNDS AND METHODS FOR MODULATING SPLICING” (REMIX THERAPEUTICS INC., priority 2021, published 2025) come the findings set out here.

What all share (type): cell-based
For one experiment, the system named is MYB mRNA. The experiment can be described thus: RT-qPCR splicing assay, MYB canonical (CJ) and alternative (AJ) junction mRNA. To be noted: Homo sapiens; for IC50: read-out: MYB CJ IC50; for AC50: increase in alternative junction mRNA, read-out: MYB AJ AC50. Here is the method:
(§1) Compounds described herein were used to modulate RNA transcript abundance in cells. The expression of a target mRNA was measured by detecting the formation of an exon-exon junction in the canonical transcript (CJ). A compound mediated exon-inclusion event was detected by observing an increase in formation of a new junction with an alternative exon (AJ). Real-time qPCR assays were used to detect these splicing switches and interrogate the potency of various compounds towards different target genes. A high-throughput real time quantitative PCR (RT-qPCR) assay was developed to measure these two isoforms of the mRNA (CJ and AJ) for exemplary genes, such as HTT, SMN2, and MYB, together with a control housekeeping gene, GAPDH or GUSB or PPIA, used for normalization. Briefly, the A673 or K562 cell line was treated with various compounds described herein (e.g., compounds of Formula (I)). After treatment, the levels of the HTT, MYB, or SMN2 mRNA targets were determined from each sample of cell lysate by cDNA synthesis followed by qPCR.
(§2) • Cells-to-CT 1-step kit: ThermoFisher A25602, Cells-to-CT lysis reagent: ThermoFisher 4391851C, TaqMan™ Fast Virus 1-Step Master Mix: ThermoFisher 4444436 • GAPDH: VIC-PL, ThermoFisher 4326317E (Assay: Hs99999905_m1)—used for K562/suspension cell lines • GUSB: VIC-PL, ThermoFisher 4326320E (Assay: Hs99999908_m1)—used for K562/suspension cell lines • PPIA: VIC-PL, ThermoFisher 4326316E (Assay: Hs99999904_m1)—used for A673/adherent cell lines
(§3) The A673 cell line was cultured in DMEM with 10% FBS. Cells were diluted with full growth media and plated in a 96-well plate (15,000 cells in 100 ul media per well). The plate was incubated at 37° C. with 5% CO2 for 24 hours to allow cells to adhere. An 11-point 3-fold serial dilution of the compounds was made in DMSO then diluted in media in an intermediate plate. Compounds were transferred from the intermediate plate to the cell plate with the top dose at a final concentration of 10 uM in the well. Final DMSO concentration was kept at or below 0.25%. The cell plate was returned to the incubator at 37° C. with 5% CO2 for an additional 24 hours.
(§4) The K562 cell line was cultured in IMDM with 10% FBS. For K562, cells were diluted with full growth media and plated in either a 96-well plate (50,000 cells in 50 uL media per well) or a 384-well plate (8,000-40,000 cells in 45 uL media per well). An 11-point 3-fold serial dilution of the compounds were made in DMSO then diluted in media in an intermediate plate. Compound was transferred from the intermediate plate to the cell plate with the top dose at a final concentration of 10 uM in the well. Final DMSO concentration was kept at or below 0.25%. Final volume was 100 uL for 96-well plate and 50 uL for 384-well plate. The cell plate was then placed in an incubator at 37° C. with 5% CO2 for 24 hours.
(§5) The cells were then gently washed with 50 uL-100 uL cold PBS before proceeding to addition of lysis buffer. 30 uL-50 μL of room temperature lysis buffer with DNAse I (and optionally RNAsin) was added to each well. Cells were shaken/mixed thoroughly at room temperature for 5-10 minutes for lysis to take place and then 3 uL-5 μL of room temperature stop solution was added and wells were shaken/mixed again. After 2-5 minutes, the cell lysate plate was transferred to ice for RT-qPCR reaction setup. The lysates could also be frozen at −80° C. for later use.
(§6) In some cases, a direct lysis buffer was used. An appropriate volume of 3× lysis buffer (10 mM Tris, 150 mM NaCl, 1.5%-2.5% Igepal and 0.1-1 U/uL RNAsin, pH 7.4) was directly added to either K562 or A673 cells in media and mixed by pipetting 3 times. The plates were then incubated at room temperature with shaking/rocking for 20-50 minutes to allow for lysis to take place. After this time, the cell lysate plate was transferred to ice to set up for the RT-qPCR reactions. The lysates could also be frozen at −80° C. for later use. […]
In general terms: Quantitative PCR measures a nucleic acid by following its amplification.

The test system of another experiment is SMN2 mRNA. Description: RT-qPCR splicing assay, gene panel, SMN2 canonical junction (CJ) mRNA. To be noted: Homo sapiens; decrease in CJ mRNA levels; larger panel of genes; Table 3; read-out: SMN2 CJ IC50. Here is the method:
as §1, §3, §4, §5
(§7) In some cases, a direct lysis buffer was used. An appropriate volume of 3× lysis buffer (10 mM Tris, 150 mM NaCl, 1.5%-2.5% Igepal and 0.1-1 U/uL RNAsin, pH 7.4) was directly added to either K562 or A673 cells in media and mixed by pipetting 3 times. The plates were then incubated at room temperature with shaking/rocking for 20-50 minutes to allow for lysis to take place. After this time, the cell lysate plate was transferred to ice to set up for the RT-qPCR reactions. The lysates could also be frozen at −80° C. for later use.
(§8) To set up 10 uL RT-qPCR reactions, cell lysates were transferred to 384-well qPCR plates containing the master mix according to the table below. The plates were sealed, gently vortexed, and spun down before the run. The volumes were adjusted accordingly in some instances where the reaction was carried in 20 μL. The table below summarizes the components of the RT-qPCR reactions:
(§9) The RT-qPCR reaction was performed using a QuantStudio (ThermoFisher) under the following fast cycling conditions. […]

The test system of a further experiment is K562 cells. Description: Cell Titer Glo 2.0 cell viability assay. To be noted: Homo sapiens, 500 cells/well, 72 hours. Here is the method: Compounds described herein were screened for toxicity in K562 (human chronic myelogenous leukemia) and SH-SY5Y (human neuroblastoma) cells using a Cell Titer Glo 2.0 assay. • Promega CellTiter-Glo® 2.0 Cell Viability Assay (cat #G9241) • Corning 384-well TC-treated microplates (cat #3570) Cells were plated at 500 cells/well (K562 cells) in 45 μL of IMDM supplemented with 10% FBS in a 384-well opaque plate. Wells containing only medium were used as a blank control. Test compounds (e.g., compounds of Formula (I), (II), or (III)) were first serially diluted in DMSO then diluted 1:100 with IMDM+10% FBS. The final concentration of DMSO was 0.1% in each well. The cells were incubated for 72 hours at 37° C. and 5% CO2 before assaying with Cell Titer Glo 2.0 reagent.

The next experiment relates to Target C. Description: RT-qPCR splicing assay, gene panel, Target C canonical junction (CJ) mRNA. To be noted: Homo sapiens; decrease in CJ mRNA levels; larger panel of genes; Table 3; read-out: Target C CJ IC50. Here is the method:
as §1, §3, §4, §5, §7, §8, §9

The subject of the next experiment is HTT mRNA. The experiment can be described thus: RT-qPCR splicing assay, HTT canonical (CJ) and alternative (AJ) junction mRNA. To be noted: Homo sapiens; for IC50: read-out: HTT CJ IC50; for AC50: increase in alternative junction mRNA, read-out: HTT AJ AC50. The protocol: as §1, §2, §3, §4, §5, §6
Setting [1] is: decrease in CJ mRNA levels, larger panel of genes, Table 3.
Setting [2] is: decrease in canonical junction mRNA, A673 or K562 cells, 24 hours treatment, Table 2.
Setting [3] is: A673 or K562 cells, 24 hours treatment, Table 2.

Turning to `Cc1cn2nc(-c3cc(F)c4nn(C5CCNC6(CC6)C5)cc4c3)cc2c(C)n1` (stereo in doubt) [Compound 206, 2-[2-[(7R)-4-azaspiro[2.5]octan-7-yl]-7-fluoro-indazol-5-yl]-4,6-dimethyl-pyrazolo[1,5-a]pyrazine], the IC50 in the experiment on MYB mRNA (setting [1]) is 0.1 to 1 µM; with MYB mRNA (setting [2]) it was 0.1 to 1 µM; in the experiment on SMN2 mRNA, 0.1 to 1 µM; in the experiment with Target C, 0.1 to 1 µM; in the experiment with HTT mRNA (setting [1]), under 0.1 µM; in the experiment on HTT mRNA (setting [2]) it was under 0.1 µM. Moreover, the AC50 in the experiment on MYB mRNA (setting [3]) and in the experiment with HTT mRNA (setting [3]) was 0.1 to 1 µM in each case. Besides, the GI50 in the experiment on K562 cells fell in the range of 0.1 to 1 µM.

Regarding `Cc1cn2nc(-c3cc(F)c4nn([C@@H]5CCN(C)C[C@H]5F)cc4c3)cc(C)c2n1` [Compound 197, 6-(7-fluoro-2-((3R,4R)-3-fluoro-1-methylpiperidin-4-yl)-2H-indazol-5-yl)-2,8-dimethylimidazo[1,2-b]pyridazine], the IC50 is 1 to 10 µM with MYB mRNA (setting [1]); 1 to 10 µM with MYB mRNA (setting [2]); 0.1 to 1 µM in the experiment with SMN2 mRNA; 1 to 10 µM in the experiment with Target C; 0.1 to 1 µM with HTT mRNA (setting [1]); 0.1 to 1 µM with HTT mRNA (setting [2]). In addition, the results for the AC50 in the experiment on MYB mRNA (setting [3]) and with HTT mRNA (setting [3]) were 1 to 10 µM and 0.1 to 1 µM, respectively. The GI50 with K562 cells lay in the range of 1 to 10 µM.

With `Cc1cn2nc(-c3ccc4nn(C5CCNC6(CC6)C5)cc4n3)cc(C)c2n1` (stereo not drawn) [Compound 201, 6-[2-(4-azaspiro[2.5]octan-7-yl)pyrazolo[4,3-b]pyridine-5-yl]-2,8-dimethyl-imidazo[1,2-b]pyridazine], the concentration for half-maximal inhibition (IC50) lay within 1 to 10 µM in the experiment with MYB mRNA (setting [1]); 1 to 10 µM in the experiment on MYB mRNA (setting [2]); 0.1 to 1 µM in the experiment with SMN2 mRNA; 1 to 10 µM in the experiment on Target C; 0.1 to 1 µM in the experiment on HTT mRNA (setting [1]); 0.1 to 1 µM in the experiment on HTT mRNA (setting [2]). The AC50 in the experiment on MYB mRNA (setting [3]) and in the experiment with HTT mRNA (setting [3]) was 1 to 10 µM in each case. This molecule registered a GI50 in the experiment on K562 cells of 1 to 10 µM.

The IC50 is the midpoint of a concentration-inhibition curve. The term AC50 denotes the concentration at which the activity in the assay is half-maximal. What is called GI50 is the concentration giving 50% growth inhibition. A high value points to less potent growth inhibition.
